Reference: patent publication US10669284B2, “Fused thiazolopyrimidine derivatives as MNKS inhibitors” (LIFEARC, priority 2015, dated 2020)

Key:
MKNK2 = MKNK2 (Homo sapiens, UniProt Q9HBH9); assay: Kinase selectivity screen MKNK2; type: biochemical; details: 1 μM compound
SRC = SRC (Homo sapiens, UniProt P12931); assay: Kinase selectivity screen SRC; details: read-out: % inhibition of SRC
SGK1 = molecular target: T1, SGK1 (Homo sapiens, UniProt O00141); assay: Kinase selectivity screen SGK1; details: read-out: % inhibition of SGK1
T1 sequence (O00141 1-431): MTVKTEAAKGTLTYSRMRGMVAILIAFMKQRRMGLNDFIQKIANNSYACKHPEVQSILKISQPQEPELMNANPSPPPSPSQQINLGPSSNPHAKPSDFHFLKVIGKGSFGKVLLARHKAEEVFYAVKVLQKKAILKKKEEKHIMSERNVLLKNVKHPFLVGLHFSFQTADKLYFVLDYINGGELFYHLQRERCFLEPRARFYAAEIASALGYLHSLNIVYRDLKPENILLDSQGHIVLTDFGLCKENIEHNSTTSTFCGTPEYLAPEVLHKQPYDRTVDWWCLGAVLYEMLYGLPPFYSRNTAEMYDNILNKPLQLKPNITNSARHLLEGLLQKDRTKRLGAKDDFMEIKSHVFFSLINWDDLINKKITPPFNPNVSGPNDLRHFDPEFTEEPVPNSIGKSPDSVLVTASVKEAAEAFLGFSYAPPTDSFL

TBK1 = molecular target: T2, TBK1 (Homo sapiens, UniProt Q9UHD2); assay: Kinase selectivity screen TBK1; details: read-out: % inhibition of TBK1
T2 sequence (Q9UHD2 1-729): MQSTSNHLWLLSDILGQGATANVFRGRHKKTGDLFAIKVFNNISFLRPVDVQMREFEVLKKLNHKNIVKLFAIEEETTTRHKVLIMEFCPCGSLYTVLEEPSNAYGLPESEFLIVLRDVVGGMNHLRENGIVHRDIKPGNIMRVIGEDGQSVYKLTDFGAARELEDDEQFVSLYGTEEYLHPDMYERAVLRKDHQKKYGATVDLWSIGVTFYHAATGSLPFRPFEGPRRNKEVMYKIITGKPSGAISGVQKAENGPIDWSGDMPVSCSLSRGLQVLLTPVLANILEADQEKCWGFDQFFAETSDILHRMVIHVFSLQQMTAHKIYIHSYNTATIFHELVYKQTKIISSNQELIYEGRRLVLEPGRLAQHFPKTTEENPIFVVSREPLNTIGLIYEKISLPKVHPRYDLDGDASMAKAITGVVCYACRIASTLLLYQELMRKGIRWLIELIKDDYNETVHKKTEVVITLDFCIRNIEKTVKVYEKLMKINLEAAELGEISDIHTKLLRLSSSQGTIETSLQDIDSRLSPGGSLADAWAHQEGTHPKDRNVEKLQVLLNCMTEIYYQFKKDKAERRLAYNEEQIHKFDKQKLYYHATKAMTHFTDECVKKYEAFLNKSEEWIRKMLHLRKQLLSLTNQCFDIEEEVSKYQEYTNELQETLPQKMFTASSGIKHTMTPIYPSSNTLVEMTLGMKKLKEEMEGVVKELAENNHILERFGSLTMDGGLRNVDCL

PIM2 = PIM2 (Homo sapiens, UniProt Q9P1W9); assay: Kinase selectivity screen PIM2; details: read-out: % inhibition of PIM2
PRAK = molecular target: T3, PRAK (Homo sapiens, UniProt Q8IW41); assay: Kinase selectivity screen PRAK; details: read-out: % inhibition of PRAK
T3 sequence (Q8IW41 1-473): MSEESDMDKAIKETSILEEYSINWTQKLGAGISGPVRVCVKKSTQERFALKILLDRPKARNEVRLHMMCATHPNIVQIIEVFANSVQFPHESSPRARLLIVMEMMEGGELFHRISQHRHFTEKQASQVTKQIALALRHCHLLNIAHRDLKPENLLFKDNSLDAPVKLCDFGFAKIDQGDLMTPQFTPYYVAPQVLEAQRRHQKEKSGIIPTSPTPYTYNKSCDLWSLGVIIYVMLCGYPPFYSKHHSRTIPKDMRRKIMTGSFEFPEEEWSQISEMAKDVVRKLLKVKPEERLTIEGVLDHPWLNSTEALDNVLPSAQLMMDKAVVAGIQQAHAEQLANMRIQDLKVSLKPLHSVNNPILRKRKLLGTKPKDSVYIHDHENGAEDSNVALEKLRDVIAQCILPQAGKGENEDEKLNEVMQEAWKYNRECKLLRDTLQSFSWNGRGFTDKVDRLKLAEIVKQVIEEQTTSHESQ

FGFR4 = FGFR4 (Homo sapiens, UniProt P22455); assay: Kinase selectivity screen FGFR4; details: read-out: % inhibition of FGFR4
ROCK2 = ROCK2 (Homo sapiens, UniProt O75116); assay: Kinase selectivity screen ROCK2; details: read-out: % inhibition of ROCK2
PRKCA = PRKCA (Homo sapiens, UniProt P17252); assay: Kinase selectivity screen PRKCA; details: read-out: % inhibition of PRKCA
NTRK1 = NTRK1 (Homo sapiens, UniProt P04629); assay: Kinase selectivity screen NTRK1; details: read-out: % inhibition of NTRK1
NTRK1, sequence (P04629 33-796, species assumed): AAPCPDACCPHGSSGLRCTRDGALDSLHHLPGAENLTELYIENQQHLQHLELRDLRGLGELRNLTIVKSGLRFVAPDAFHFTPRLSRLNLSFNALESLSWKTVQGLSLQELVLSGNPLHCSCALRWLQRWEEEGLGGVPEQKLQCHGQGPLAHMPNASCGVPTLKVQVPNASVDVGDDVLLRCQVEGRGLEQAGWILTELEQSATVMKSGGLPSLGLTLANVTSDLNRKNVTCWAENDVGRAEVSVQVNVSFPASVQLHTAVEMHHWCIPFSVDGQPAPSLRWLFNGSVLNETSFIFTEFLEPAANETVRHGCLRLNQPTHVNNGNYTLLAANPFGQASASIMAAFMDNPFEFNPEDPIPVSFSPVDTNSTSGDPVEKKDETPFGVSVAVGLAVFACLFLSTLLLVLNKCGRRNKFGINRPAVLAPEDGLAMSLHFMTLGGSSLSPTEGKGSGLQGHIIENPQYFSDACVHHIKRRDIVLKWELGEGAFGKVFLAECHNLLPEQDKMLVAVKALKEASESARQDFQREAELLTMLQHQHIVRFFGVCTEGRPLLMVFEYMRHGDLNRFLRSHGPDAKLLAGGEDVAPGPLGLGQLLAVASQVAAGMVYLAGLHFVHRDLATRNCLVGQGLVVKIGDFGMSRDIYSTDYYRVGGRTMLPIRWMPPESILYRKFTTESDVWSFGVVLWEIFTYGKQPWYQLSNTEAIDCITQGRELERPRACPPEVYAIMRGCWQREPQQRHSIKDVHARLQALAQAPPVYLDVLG

PIK3CG = PIK3CG (Homo sapiens, UniProt P48736); assay: Kinase selectivity screen PIK3CG; details: read-out: % inhibition of PIK3CG
PIK3CG, sequence (P48736 whole entry, species assumed): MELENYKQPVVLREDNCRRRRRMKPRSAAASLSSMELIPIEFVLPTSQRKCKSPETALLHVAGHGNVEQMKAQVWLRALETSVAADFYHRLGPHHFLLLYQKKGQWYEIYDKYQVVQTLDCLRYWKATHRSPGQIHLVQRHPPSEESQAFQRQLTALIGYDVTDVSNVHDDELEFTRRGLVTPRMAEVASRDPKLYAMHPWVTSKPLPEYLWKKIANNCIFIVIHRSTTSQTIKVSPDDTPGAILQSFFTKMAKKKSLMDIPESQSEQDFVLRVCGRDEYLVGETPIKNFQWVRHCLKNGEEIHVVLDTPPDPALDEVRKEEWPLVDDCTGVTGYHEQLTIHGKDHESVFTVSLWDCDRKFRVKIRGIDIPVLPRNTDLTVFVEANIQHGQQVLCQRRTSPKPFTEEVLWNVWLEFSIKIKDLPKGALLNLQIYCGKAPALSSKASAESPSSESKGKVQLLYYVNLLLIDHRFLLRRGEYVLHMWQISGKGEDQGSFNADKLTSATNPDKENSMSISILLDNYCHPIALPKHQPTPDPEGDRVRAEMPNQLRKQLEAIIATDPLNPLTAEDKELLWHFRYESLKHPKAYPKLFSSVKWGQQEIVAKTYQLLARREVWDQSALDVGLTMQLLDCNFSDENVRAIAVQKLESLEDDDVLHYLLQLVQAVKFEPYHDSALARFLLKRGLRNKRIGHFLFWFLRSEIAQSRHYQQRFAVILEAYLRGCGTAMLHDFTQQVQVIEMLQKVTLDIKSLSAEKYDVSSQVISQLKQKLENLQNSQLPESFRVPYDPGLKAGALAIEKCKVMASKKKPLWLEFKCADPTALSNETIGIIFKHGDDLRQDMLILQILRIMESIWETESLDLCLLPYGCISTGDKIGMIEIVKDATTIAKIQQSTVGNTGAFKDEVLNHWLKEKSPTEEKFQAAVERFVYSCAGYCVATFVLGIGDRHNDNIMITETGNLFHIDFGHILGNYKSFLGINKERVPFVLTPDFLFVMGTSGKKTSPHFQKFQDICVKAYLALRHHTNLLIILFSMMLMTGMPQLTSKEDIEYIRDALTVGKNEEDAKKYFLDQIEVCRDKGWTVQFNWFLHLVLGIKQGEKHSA

PIP5K1A = PIP5K1A (Homo sapiens, UniProt Q99755); assay: Kinase selectivity screen PIP5K1A; details: read-out: % inhibition of PIP5K1A
PIP5K1A, sequence (Q99755 whole entry, species assumed): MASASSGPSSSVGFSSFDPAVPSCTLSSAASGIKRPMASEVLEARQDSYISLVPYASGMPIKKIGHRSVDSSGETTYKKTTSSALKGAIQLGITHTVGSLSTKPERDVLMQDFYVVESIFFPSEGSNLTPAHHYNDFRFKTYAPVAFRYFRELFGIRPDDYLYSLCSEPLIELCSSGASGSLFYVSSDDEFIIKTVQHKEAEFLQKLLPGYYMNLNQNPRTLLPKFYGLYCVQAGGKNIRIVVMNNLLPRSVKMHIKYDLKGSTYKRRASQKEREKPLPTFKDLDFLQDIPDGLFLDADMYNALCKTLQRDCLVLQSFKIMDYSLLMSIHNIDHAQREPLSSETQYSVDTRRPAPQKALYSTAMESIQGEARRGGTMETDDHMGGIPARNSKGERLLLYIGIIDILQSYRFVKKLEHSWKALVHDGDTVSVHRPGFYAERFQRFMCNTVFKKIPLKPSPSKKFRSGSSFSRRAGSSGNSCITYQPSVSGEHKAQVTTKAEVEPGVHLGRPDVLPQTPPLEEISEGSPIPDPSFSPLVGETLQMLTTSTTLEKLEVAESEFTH

RPS6KA5 = RPS6KA5 (Homo sapiens, UniProt O75582); assay: Kinase selectivity screen RPS6KA5; details: read-out: % inhibition of RPS6KA5
RPS6KA5, sequence (O75582 whole entry, species assumed): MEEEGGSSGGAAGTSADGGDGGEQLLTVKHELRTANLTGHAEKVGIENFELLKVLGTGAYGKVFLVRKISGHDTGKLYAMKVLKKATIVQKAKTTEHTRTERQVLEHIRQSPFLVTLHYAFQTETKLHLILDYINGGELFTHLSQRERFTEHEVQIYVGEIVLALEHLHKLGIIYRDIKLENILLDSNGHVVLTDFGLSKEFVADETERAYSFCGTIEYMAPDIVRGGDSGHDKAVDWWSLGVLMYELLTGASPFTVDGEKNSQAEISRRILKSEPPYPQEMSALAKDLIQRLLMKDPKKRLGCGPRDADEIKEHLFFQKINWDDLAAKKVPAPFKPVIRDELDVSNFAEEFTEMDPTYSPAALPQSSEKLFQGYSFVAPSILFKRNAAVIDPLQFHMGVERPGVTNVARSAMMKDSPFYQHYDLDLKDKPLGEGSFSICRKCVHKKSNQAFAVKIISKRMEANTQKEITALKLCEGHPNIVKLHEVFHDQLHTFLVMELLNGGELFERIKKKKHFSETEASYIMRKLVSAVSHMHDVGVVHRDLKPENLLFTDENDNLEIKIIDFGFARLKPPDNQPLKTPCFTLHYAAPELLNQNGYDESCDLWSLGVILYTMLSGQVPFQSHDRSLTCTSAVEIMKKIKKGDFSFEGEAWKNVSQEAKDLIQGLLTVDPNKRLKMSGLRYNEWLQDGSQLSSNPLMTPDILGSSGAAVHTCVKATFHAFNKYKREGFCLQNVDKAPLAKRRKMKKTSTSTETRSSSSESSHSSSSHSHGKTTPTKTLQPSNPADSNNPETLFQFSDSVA

RPS6KB1 = RPS6KB1 (Homo sapiens, UniProt P23443); assay: Kinase selectivity screen RPS6KB1; details: read-out: % inhibition of RPS6KB1
RPS6KB1, sequence (P23443 whole entry, species assumed): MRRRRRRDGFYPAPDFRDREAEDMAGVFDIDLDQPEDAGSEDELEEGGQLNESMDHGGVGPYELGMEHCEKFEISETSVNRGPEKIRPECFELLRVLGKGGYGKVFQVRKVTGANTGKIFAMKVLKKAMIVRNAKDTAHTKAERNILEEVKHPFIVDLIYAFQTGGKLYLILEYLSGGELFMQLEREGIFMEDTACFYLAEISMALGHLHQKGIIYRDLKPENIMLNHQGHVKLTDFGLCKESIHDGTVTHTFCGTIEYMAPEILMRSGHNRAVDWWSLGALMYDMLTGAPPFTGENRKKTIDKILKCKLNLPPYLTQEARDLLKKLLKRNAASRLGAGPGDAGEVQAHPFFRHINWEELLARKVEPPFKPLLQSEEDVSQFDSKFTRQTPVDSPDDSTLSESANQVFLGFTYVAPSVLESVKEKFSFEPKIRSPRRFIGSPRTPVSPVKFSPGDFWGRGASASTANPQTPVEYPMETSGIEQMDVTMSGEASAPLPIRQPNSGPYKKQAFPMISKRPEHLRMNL

MKNK2, sequence (Q9HBH9 whole entry): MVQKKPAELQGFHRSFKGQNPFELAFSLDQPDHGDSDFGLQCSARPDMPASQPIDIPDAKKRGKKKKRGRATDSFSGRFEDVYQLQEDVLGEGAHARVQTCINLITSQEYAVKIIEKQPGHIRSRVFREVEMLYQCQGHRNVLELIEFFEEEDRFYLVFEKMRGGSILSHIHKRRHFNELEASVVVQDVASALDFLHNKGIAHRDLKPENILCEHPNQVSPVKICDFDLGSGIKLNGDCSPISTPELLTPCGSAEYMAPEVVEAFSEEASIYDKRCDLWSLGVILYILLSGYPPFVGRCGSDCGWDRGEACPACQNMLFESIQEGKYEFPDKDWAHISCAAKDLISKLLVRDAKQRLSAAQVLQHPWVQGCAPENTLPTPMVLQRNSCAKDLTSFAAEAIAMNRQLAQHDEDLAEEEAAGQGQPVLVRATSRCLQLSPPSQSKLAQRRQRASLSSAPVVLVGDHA

Row | Structure (SMILES) | inhibition at 1 µM (MKNK2) [%] | inhibition at 1 µM (SRC) [%] | inhibition at 1 µM (SGK1) [%] | inhibition at 1 µM (TBK1) [%] | inhibition at 1 µM (PIM2) [%] | inhibition at 1 µM (PRAK) [%] | inhibition at 1 µM (FGFR4) [%] | inhibition at 1 µM (ROCK2) [%] | inhibition at 1 µM (PRKCA) [%] | inhibition at 1 µM (NTRK1) [%] | inhibition at 1 µM (PIK3CG) [%] | inhibition at 1 µM (PIP5K1A) [%] | inhibition at 1 µM (RPS6KA5) [%] | inhibition at 1 µM (RPS6KB1) [%]
1 | CN(C)CCCNC(=O)c1nc2c(N3CCc4cc(F)ccc43)ncnc2s1 [Example 64, N-[3-(dimethylamino)propyl]-7-(5-fluoroindolin-1-yl)thiazolo[5,4-d]pyrimidine-2-carboxamide] | 96 | 0 | 41 | 7 | 42 | 0 | 0 | 18 | 0 | 5 | 3 | 0 | 24 | 0
2 | CC(C)Oc1cc(F)ccc1Nc1ncnc2sc(C(=O)NCC3CCNCC3)nc12 [Example 10, 7-(4-fluoro-2-isopropoxy-anilino)-N-(4-piperidylmethyl)thiazolo[5,4-d]pyrimidine-2-carboxamide] | 81 | 5 | 14 | 14 | 7 | 0 | 0 | 1 | 8 | 10 | 6 | 2 | 0 | 0
3 | O=C(NCC1CCNCC1)c1nc2c(N3CCc4cc(F)ccc43)ncnc2s1 [Example 58, 7-(5-fluoroindolin-1-yl)-N-(4-piperidylmethyl)thiazolo[5,4-d]pyrimidine-2-carboxamide] | 93 | 0 | 24 | 17 | 13 | 0 | 10 | 8 | 0 | 0 | 0 | 1 | 0 | 0
